Laboratory results published in patent US8889705B2, “Noscapine analogs and their use in treating cancers” (Emory University, priority 2007, dated 2014).
“Also recorded” adds a separate entry of the source.

How the values were obtained:
[1] = test system: normal human fibroblast cells; assay: Cell cycle analysis (propidium iodide, flow cytometry); type: cell-based; details: 100 μM
Procedure: The flow cytometric evaluation of the cell cycle status was performed as described previously (Zhou et al., 2003). Briefly, 2×10^6 cells were centrifuged, washed twice with ice-cold PBS, and fixed in 70% ethanol. Tubes containing the cell pellets were stored at 4° C. for at least 24 hours. Cells were then centrifuged at 1000×g for 10 min and the supernatant was discarded. The pellets were washed twice with 5 ml of PBS and then stained with 0.5 ml of propidium iodide (0.1% in 0.6% Triton-X in PBS) and 0.5 ml of RNase A (2 mg/ml) for 45 minutes in dark. Samples were then analyzed on a FACSCalibur flow cytometer (Beckman Coulter Inc., Fullerton, Calif.).

[2] = test system: caspase-3 activity in CEM, CEM/VLB100, CEM/VM-1-5, 1A9 and 1A9/PTX22 cells; assay: Determination of caspase-3 activity (Z-DEVD-aminoluciferin); type: cell-based, human; details: 72 hours; 25 μM (CEM lines) or 50 μM (1A9 lines)
Procedure: Determination of caspase-3 activity: 10^6 cells were incubated with 25 μM 9-nitro-nos (CEM, CEMNLB100 and CEM/VM-1-5) or 50 μM 9-nitro-nos (1A9 and 1A9/PTX22) for 0, 24, 48 and 72 hours. Caspase-3 activity was then measured by the cleavage of the small synthetic substrate Z-DEVD-aminoluciferin (CaspaseGlo™ 3/7 Assay System Kit, Promega, Madison, Wis.) that becomes luminogenic upon cleavage. The luminescent signal, which is directly proportional to the amount of caspase-3 activity, was measured in a luminescence plate reader.

1A9 cells = assay: Sulforhodamine B cell proliferation assay; type: cell-based; details: Homo sapiens; 1A9, 72 hours, SRB
Procedure: (§1) Sulforhodamine B assay: The cell proliferation assay was performed in 96-well plates as described previously (Skehan et al., 1990; Zhou et al., 2003). Adherent cells (1A9 and 1A9/PTX22) were seeded in 96-well plates at a density of 5×10^3 cells per well. They were treated with increasing gradient concentrations of 9-nitro-nos the next day while in log-phase growth. After 72 hours of drug treatment, cells were fixed with 50% trichloroacetic acid and stained with 0.4% sulforhodamine B dissolved in 1% acetic acid. Cells were then washed with 1% acetic acid to remove unbound dye. The protein-bound dye was extracted with 10 mM Tris base to determine the optical density at 564-nm wavelength.

1A9/PTX22 cells = assay: Sulforhodamine B cell proliferation assay; type: cell-based; details: Homo sapiens, 1A9/ptx-22; 1A9/PTX22, 72 hours, SRB
Procedure: as §1

CEM cells = assay: In vitro cell proliferation MTS assay; type: cell-based; details: Homo sapiens, CCRF-CEM, 72 hours
Procedure: (§2) Suspension cells (CEM, CEMNLB100 and CEM/VM-1-5) were cultured in RPMI-1640 media containing 10% FBS and then seeded into 96-well plates at a density of 5×10^3 cells per well and were treated with increasing gradient concentrations of 9-nitro-nos for 72 hours. Measurement of cell proliferation was performed colorimetrically by 3-(4,5-dimethylthiazol-2-yl)-5-(3-carboxymethoxyphenyl)-2-(4-sulphophenyl)-2H-tetrazolium, inner salt (MTS) assay, using the CellTiter96 AQueous One Solution Reagent (Promega, Madison, Wis.). Cells were exposed to MTS for 3 hours and absorbance was measured using a microplate reader (Molecular Devices, Sunnyvale, Calif.) at an optical density (OD) of 490 nm. The percentage of cell survival as a function of drug concentration for both the assays was then plotted to determine the IC50 value, which stands for the drug concentration needed to prevent cell proliferation by 50%.
as §2, with “(CEM)” for “(CEM, CEMNLB100 and CEM/VM-1-5)”, “were” for “were cultured in RPMI-1640 media containing 10% FBS and then”, “increasing” for “increasing gradient”, “all halogenated analogs” for “9-nitro-nos”

With COc1ccc2c(c1OC)C(=O)O[C@@H]2[C@H]1c2c(c([N+](=O)[O-])c3c(c2OC)OCO3)CCN1C [9-nitro-nos, (S)-6,7-dimethoxy-3-((R)-4-methoxy-6-methyl-9-nitro-5,6,7,8-tetrahydro-[1,3]dioxolo[4,5-g]isoquinolin-5-yl)isobenzofuran-1(3H)-one] the “cell cycle profile of normal human fibroblast cells” value [1] was “did not observe any perturbations in the cell cycle profile; also recorded: did not alter the cell cycle progression profile”, the “activation of caspase-3” value [2] was 10-20 fold and the IC50 (1A9 cells) was 30.1 µM. For the same molecule, the IC50 (1A9/PTX22 cells) was 27.5 µM and the IC50 (CEM cells) was 10 µM.
